Row | SMILES | melting point [°C]
1 | CC(C)(C)c1cc(C(C)(C)C)c2op(Cl)oc3c(C(C)(C)C)cc(C(C)(C)C)cc3c2c1 | 183 to 186
2 | COc1ccc(Cl)c(Oc2c(Cl)nc(C)nc2Cl)c1 | 125 to 130
3 | CCCC[C@H](NC(=O)[C@H](CC(C)C)NC(=O)c1ccc(F)cc1F)C(=O)CSCc1ccco1 | 97 to 98
4 | NC(=O)c1ccccc1OCCNCC(O)COc1nccnc1Cl (stereo unspecified) | 132 to 133
5 | Cc1cccc2c1SC1(CCOC1=O)C2=O (stereo unspecified) | 98.5 to 99.5
6 | CCc1nn(CCNC(=O)COC)c(CC)c1Oc1cc(Cl)cc(Cl)c1 | 75 to 76
7 | O=NN(CCCl)C(=O)NCCOC(=O)c1cccnc1 | 63 to 64
8 | CC(C)(C)OC(=O)N1CC(CC(=O)CC(=O)OCc2ccc([N+](=O)[O-])cc2)C2NC(=O)C21 (stereo unspecified) | 107 to 110
9 | O=[N+]([O-])c1ccc(OCC=CCBr)c([N+](=O)[O-])c1 | 55 to 57
10 | O=C(O)C=CC(=O)c1ccc(Oc2ccccc2Cl)cc1 | 145 to 147
11 | Cc1ccc(-n2ncc(-c3ccc(S(C)(=O)=O)cc3)c(-c3ccc(F)cc3)c2=O)cc1 | 190 to 192
12 | CCc1nsc(NC(=O)C(C)c2ccc3oc(-c4c(Cl)cccc4Cl)nc3c2)c1Cl (stereo unspecified) | 180 to 183
13 | CC1(C)N(Cc2ccc(C(=O)Cl)cc2)C(=O)C(=O)N1Cc1ccc(C(=O)Cl)cc1 | 232 to 235
14 | CC(C)(C)OCc1cc(C(C)(C)C)cc(COC(C)(C)C)c1SSc1c(COC(C)(C)C)cc(C(C)(C)C)cc1COC(C)(C)C | 120 to 121
15 | Cc1sc2c(c1C)C(c1ccc(Cl)cc1)=N[C@@H](CC(=O)Nc1ccc(N)cc1)c1nnc(C)n1-2 | 169 to 173
16 | Cc1ccc(OC2CCN(C(=O)C(=O)Nc3ccc4c(c3)CC(=O)N4)CC2)cc1 | 109 to 112
17 | CCc1nc(CCc2cccc(N)c2)sc1C | 64 to 65
18 | CN(C)C=CC(=O)c1ccsc1 | 89 to 90
19 | COC(=O)c1nnc2n1-c1ccc(Cl)cc1C(c1ccccc1)=NC2 | 216 to 217
20 | Cc1cccc(C)c1CO | 84
21 | COc1ccc2[nH]c(S(=O)Cc3ncc(C)c(N(C)C)c3Cl)nc2c1 (stereo unspecified) | 147 to 149
22 | O=c1oc2ccccc2c(=O)n1CCCCCCCCCO | 125 to 128
23 | O=C1C(=c2[nH]c(=c3[nH]c(=C4C(=O)c5ccccc5C4=O)c4ccccc34)c3ccccc23)C(=O)c2ccccc21 | > 300
24 | Cc1cccc2c(-c3ccc(F)cc3)onc12 | 134 to 136
25 | COc1cccc(-c2c(Cl)c(CCl)nc3sc4c(c23)CCN(Cc2ccccc2)C4)c1OC | 137 to 138
26 | COc1ccc2c(c1)c1c3c(c(-c4c(Cl)cccc4OC)cc1n2CCCO)C(=O)NC3=O | 224 to 227

Row | SMILES | melting point [°C]
27 | COc1ccc(-c2nc3ccc(OC(F)(F)F)cc3[nH]2)c(OC)c1 | 201 to 203
28 | CCOCCn1c(C(=O)C2CCN(CCC3(c4ccccc4)CCN(C(=O)c4cc(OC)c(OC)c(OC)c4)C3)CC2)nc2ccccc21 (stereo unspecified) | 65 to 70
29 | CCCCCCCCCCCCCCCCCCOc1cc(N)cc(C(N)=O)c1 | 139 to 143
30 | O=C1Nc2cc(Cl)ccc2C(=O)C1c1ccncc1 (stereo unspecified) | > 330
31 | CNC1([C@@H]2CCN(c3c(F)cc4c(=O)c(C(=O)O)cn([C@@H]5C[C@@H]5F)c4c3OC)C2)CC1 | 208 to 209
32 | O=C(CC[C@H](NC(=O)OCc1ccccc1)C(=O)OCc1ccccc1)ON1C(=O)CCC1=O | 104 to 106
33 | O=Cc1cccc2oc(-c3ccccc3)nc12 | 116
34 | COc1ccc(OCCO)cc1 | 69 to 71
35 | CC(Cn1ncnn1)n1nnc2cc3c(=O)n(C4CCC4)nnc3cc2c1=O (stereo unspecified) | 152 to 154
36 | COc1cc(C2CCC(c3cc(OC)c(OC)c(OC)c3)C2O)cc(OC)c1OC (stereo unspecified) | 138 to 140
37 | O=[N+]([O-])c1oc2cc(NS(=O)(=O)C(F)(F)F)ccc2c1-c1ccccc1 | 114 to 120
38 | CCn1nc(Cc2ccc([N+](=O)[O-])cc2)oc1=O | 108 to 109
39 | CC(C)(C)CC(NC(=O)c1ccc(Cl)cc1)NC(=N[N+](=O)[O-])Nc1cccnc1 (stereo unspecified) | 184 to 185
40 | CCOCCOc1ncc2cc(-c3c(Cl)cccc3Cl)c(=N)n(C)c2n1 | 133 to 135
41 | Nc1ccc(-c2ccncc2)nc1N | 252 to 254
42 | CCc1ccc(-c2ccc(C(C)=S)cc2)cc1 | 84 to 86
43 | Cc1ccc2c(c1)C=Cc1nc(C)oc1C2c1cn(Cc2cccc(C(=O)O)c2)c(=O)[nH]c1=S (stereo unspecified) | 180
44 | CCCCCCCCCCCSCCCN=C=O | 91 to 93
45 | CCOC(=O)Cc1c(COC(C)=O)[nH]c(C(=O)OCc2ccccc2)c1C | 117 to 119
46 | Cc1c(F)c(N2CC[C@@H](C(C)(C)N)C2)cc2c1c(=O)c(C(=O)O)cn2-c1ccc(F)cc1F | 156 to 158
47 | CSCCC1NCCNC1=O (stereo unspecified) | 68 to 70
48 | CCNc1cc(-c2c[nH]cn2)ccn1 | 135 to 137
49 | CN(C)CCc1cn(Cc2ccccc2)c2ccc(C(C#N)S(=O)(=O)N(C)C(c3ccccc3)c3ccccc3)cc12 (stereo unspecified) | 98 to 100
50 | CCC(Nc1cc(C)nc(Oc2c(C)cc(C)cc2C)c1C(=O)OC)C(C)O (stereo unspecified) | 116 to 120
51 | O=CO[C@H]1CC[C@H](NC(=O)OCc2ccccc2)C1 (relative stereo) | 45 to 48
52 | Cc1cc(=O)n(-c2cccc(Cl)c2)n1C | 98 to 100

Row | SMILES | melting point [°C]
53 | Cc1cccc(-n2c(-c3sc(Nc4ccccc4)nc3C)nc3ccccc3c2=O)c1 | 198 to 201
54 | Cc1cc(C)cc(C23SCCN2C(=O)c2ccccc23)c1 (stereo unspecified) | 163
55 | Clc1ccc(Nc2ncc(CCc3cccnc3)c3ccccc23)cc1 | 157 to 158
56 | CCOC(=O)c1cc(-c2ccc(F)cc2)sc1N | 98 to 99
57 | CN1OC(COc2ccccc2)CC1(Cn1ccnc1)c1ccc2ccccc2c1 (stereo unspecified) | 176 to 178
58 | O[Si](Cn1cncn1)(c1ccc(F)cc1)c1ccc(F)cc1 | 130 to 131
59 | CCCCCCCCCCCCCCCCCCNC(=O)CC[Si](OCC)(OCC)OCC | 50 to 52
60 | CCN1C(=O)C2CC(c3ccc([N+](=O)[O-])cc3)(C2)C1=O | 175 to 179
61 | CCCCOCCOc1ccc(-c2ccc3c(c2)C=C(C(=O)Nc2ccc(CP4(=O)OCCCO4)cc2)CCS3(=O)=O)cc1 | 222 to 223
62 | CC(C)c1nn(-c2ccc(C(F)(F)F)cn2)cc1CCCCOc1cccc(OC(C)(C)C(=O)O)c1 | 81 to 82
63 | COC(=O)c1ccc(N2CCN(Cc3ccccc3)CC2)cc1 | 105 to 107
64 | COc1nc(C2CC2)nc(O)c1C | 178
65 | Cn1nc(-c2ccc(F)cc2)c(-c2ccncc2)c1Br | 174
66 | CC(C)(C)c1ccc2c(c1)Cc1cc(C(C)(C)C)ccc1S2 | 152 to 154
67 | CC(=O)c1ccc2c(c1)ncn2-c1cccc(C(=NOC(C)C)OC2CCCN(C)C2)c1 (stereo unspecified) | 104 to 106
68 | O=C(C1CC1)N1CCC2(CC1)OC(c1ccccc1)C1CCCCN12 (stereo unspecified) | 110 to 114
69 | CCCCN(CCCC)S(=O)(=O)c1ccc(Cl)c([N+](=O)[O-])c1 | 67 to 68
70 | Cc1nc2c([nH]1)CCCC2=O | 229
71 | CC(C)Cc1nn(C)c(=O)c2cc(C(O)c3cccc4ccccc34)sc12 (stereo unspecified) | 165 to 167
72 | O=C(Nc1nnn[nH]1)c1oc2ccc(Cl)cc2c1OCC1CC1 | 243 to 244
73 | O=C(NC(Cc1ccccc1)C(=O)C(F)F)c1ccccc1 (stereo unspecified) | 136
74 | O=C(c1c(-c2cc(Cl)cc(Cl)c2)[nH]c2c(Cl)cc(Cl)cc12)C(F)(F)F | 214 to 216
75 | CCOC(=O)NC1Cc2ccccc2C1 | 68 to 68.5
76 | Cc1cc(Cl)cc(C(=O)Nc2ccc(Cl)cn2)n1 | 151
77 | COC(=O)Oc1ccc(C(=O)CBr)c(OC(=O)OC)c1 | 73 to 74
78 | COc1ccc2c(c1OC)C(C)NC(=O)N2 (stereo unspecified) | 210 to 212

Row | SMILES | melting point [°C]
79 | Nc1nc(-c2ccc(F)c3ccccc23)co1 | 171 to 174
80 | COc1cc(NC(=O)CC23CC4CC(CC(C4)C2)C3)cc(OC)c1 | 144 to 146
81 | CN1CCN(C2=Nc3ccccc3Nc3c(Cl)cccc32)CC1 | 168 to 170
82 | CC(C)(C)NC(=O)NCc1cccc2c1C(=O)N(C1CCC(=O)NC1=O)C2=O (stereo unspecified) | 186 to 188
83 | CCOC(=O)c1cn2c3c(c(-c4ccccc4)ccc3c1=O)OCC2C (stereo unspecified) | 246
84 | CCCc1nc(C=NNC(=S)SC)c(C)[nH]1 | 175 to 179
85 | OCCNCC(O)c1cccc(OCc2ccccc2)c1 (stereo unspecified) | 114
86 | CCS(=O)(=O)c1ccc(C(=O)O)c(Cl)c1O | 188 to 192
87 | Fc1ccc2c(C3=CCC4(CC3)OCCO4)c[nH]c2c1 | 196 to 197
88 | Cc1c(OCc2ccc(F)cc2F)ccn(Cc2cccc(F)c2)c1=O | 127 to 129
89 | C=CCc1c(O)cc(OC)c2c(C)cc(=O)oc12 | 198
90 | COCc1cc2c(N=C=S)cccc2cn1 | 88
91 | O=C(O)C1=Cc2cc(Cl)c(Cl)cc2SC1C(F)(F)F (stereo unspecified) | 262 to 264
92 | COc1ccc(-c2ccc3c(c2)CCCC3=O)c2c1OCCO2 | 156 to 158
93 | Nc1ccc(C(=O)N2CCNC(=O)C2c2cccs2)cc1 (stereo unspecified) | 181 to 182
94 | COC(=O)c1ccc(C(=N)NC(=O)OC(C)(C)C)cc1 | 157
95 | CC(CCNC(=O)CC#N)NC(=O)CC#N (stereo unspecified) | 145
96 | O=C(O)c1cc(C(=O)O)c(C(O)=NCc2ccc(C(F)(F)F)cc2)cc1C(O)=NCc1ccc(C(F)(F)F)cc1 | 263 to 264
97 | CCCCc1nn(-c2cccc([N+](=O)[O-])c2)c(=O)n1Cc1ccc(-c2ccccc2S(=O)(=O)NC(C)(C)C)cc1 | 164 to 165
98 | COc1ccc(C(O)c2ccccn2)cc1OC (stereo unspecified) | 92 to 94
99 | Cn1c(=O)n(Cc2ccccc2)c(=O)c2cc(C(=O)OCc3ccccc3)sc21 | 143 to 145
100 | Cc1cccc2c(=O)[nH]c(C3CCN(CCO)C3)cc12 (single isomer, unassigned; (-)) | 137 to 139
101 | COc1nc2ccccc2nc1NC(=O)N1CCN(c2cccc(Br)c2)CC1 | 148 to 150

Reference: a melting point compilation (Tetko et al.; mined from patent text by program, amines drawn as free bases though some values may be those of a salt)
